According to ChEMBL document CHEMBL3046265, “Synthesis, evaluation of antimicrobial activity, and molecular modeling of novel 2-((4-(2H-benzo[d] [1,2,3] triazol-2-yl)piperidin-1-yl)methyl)-5-substituted phenyl-1,3,4-oxadiazoles” (2013):
Activity calls are given as the source filed them. No cut-off for these calls is given here.

Assays:
Assay type in all cases: functional
[1] = test system: Bacillus subtilis; experiment: Antibacterial activity against Bacillus subtilis at 900 ug/ml after overnight incubation; conditions: read-out: IZ
[2] = test system: Escherichia coli; experiment: Antibacterial activity against Escherichia coli at 900 ug/ml after overnight incubation; conditions: read-out: IZ
[3] = test system: Klebsiella aerogenes; experiment: Antibacterial activity against Enterobacter aerogenes at 900 ug/ml after overnight incubation; conditions: read-out: IZ
[4] = test system: Candida albicans; experiment: Antifungal activity against Candida albicans at 900 ug/ml after 48 hr; conditions: read-out: IZ
[5] = test system: Candida albicans; experiment: Antifungal activity against Candida albicans at 300 ug/ml after 48 hr; conditions: read-out: IZ
[6] = test system: Staphylococcus aureus; experiment: Antibacterial activity against Staphylococcus aureus at 600 ug/ml after overnight incubation; conditions: for zone of inhibition at 600 µg/mL: read-out: IZ
[7] = test system: Streptococcus pyogenes; experiment: Antibacterial activity against Streptococcus pyogenes at 600 ug/ml after overnight incubation; conditions: read-out: IZ
[8] = test system: Bacillus pumilus; experiment: Antibacterial activity against Bacillus pumilus at 900 ug/ml after overnight incubation; conditions: read-out: IZ
[9] = test system: Staphylococcus aureus; experiment: Antibacterial activity against Staphylococcus aureus at 900 ug/ml after overnight incubation; conditions: for zone of inhibition at 900 µg/mL: read-out: IZ
[10] = test system: Exserohilum rostratum; experiment: Antifungal activity against Setosphaeria rostrata at 900 ug/ml after 48 hr; conditions: read-out: IZ
[11] = test system: Proteus vulgaris; experiment: Antibacterial activity against Proteus vulgaris at 600 ug/ml after overnight incubation; conditions: read-out: IZ
[12] = test system: Colletotrichum falcatum; experiment: Antifungal activity against Glomerella tucumanensis at 1200 ug/ml after 48 hr; conditions: read-out: IZ
[13] = test system: Bacillus pumilus; experiment: Antibacterial activity against Bacillus pumilus at 600 ug/ml after overnight incubation; conditions: read-out: IZ
[14] = test system: Escherichia coli; experiment: Antibacterial activity against Escherichia coli at 600 ug/ml after overnight incubation; conditions: read-out: IZ
[15] = test system: Exserohilum rostratum; experiment: Antifungal activity against Setosphaeria rostrata at 1200 ug/ml after 48 hr; conditions: read-out: IZ
[16] = test system: Enterococcus faecalis; experiment: Antibacterial activity against Enterococcus faecalis at 900 ug/ml after overnight incubation; conditions: read-out: IZ
[17] = test system: Fusarium oxysporum; experiment: Antifungal activity against Fusarium oxysporum at 900 ug/ml after 48 hr; conditions: read-out: IZ
[18] = test system: Klebsiella pneumoniae; experiment: Antibacterial activity against Klebsiella pneumoniae at 600 ug/ml after overnight incubation; conditions: read-out: IZ
[19] = test system: Klebsiella pneumoniae; experiment: Antibacterial activity against Klebsiella pneumoniae at 900 ug/ml after overnight incubation; conditions: read-out: IZ
[20] = test system: Candida albicans; experiment: Antifungal activity against Candida albicans at 1200 ug/ml after 48 hr; conditions: read-out: IZ
[21] = test system: Colletotrichum falcatum; experiment: Antifungal activity against Glomerella tucumanensis at 300 ug/ml after 48 hr; conditions: read-out: IZ
[22] = test system: Enterococcus faecalis; experiment: Antibacterial activity against Enterococcus faecalis at 600 ug/ml after overnight incubation; conditions: read-out: IZ
[23] = test system: Colletotrichum falcatum; experiment: Antifungal activity against Glomerella tucumanensis at 900 ug/ml after 48 hr; conditions: read-out: IZ
[24] = test system: Fusarium oxysporum; experiment: Antifungal activity against Fusarium oxysporum at 300 ug/ml after 48 hr; conditions: read-out: IZ
[25] = test system: Fusarium oxysporum; experiment: Antifungal activity against Fusarium oxysporum at 1200 ug/ml after 48 hr; conditions: read-out: IZ
[26] = test system: Exserohilum rostratum; experiment: Antifungal activity against Setosphaeria rostrata at 300 ug/ml after 48 hr; conditions: read-out: IZ
[27] = test system: Fusarium oxysporum; experiment: Antifungal activity against Fusarium oxysporum at 600 ug/ml after 48 hr; conditions: read-out: IZ
[28] = test system: Colletotrichum falcatum; experiment: Antifungal activity against Glomerella tucumanensis at 600 ug/ml after 48 hr; conditions: read-out: IZ
[29] = test system: Klebsiella aerogenes; experiment: Antibacterial activity against Enterobacter aerogenes at 600 ug/ml after overnight incubation; conditions: read-out: IZ
[30] = test system: Candida albicans; experiment: Antifungal activity against Candida albicans at 600 ug/ml after 48 hr; conditions: read-out: IZ
[31] = test system: Streptococcus pyogenes; experiment: Antibacterial activity against Streptococcus pyogenes at 900 ug/ml after overnight incubation; conditions: read-out: IZ
[32] = test system: Priestia megaterium; experiment: Antibacterial activity against Bacillus megaterium at 900 ug/ml after overnight incubation; conditions: for zone of inhibition at 900 µg/mL: read-out: IZ
[33] = test system: Bacillus subtilis; experiment: Antibacterial activity against Bacillus subtilis at 600 ug/ml after overnight incubation; conditions: read-out: IZ
[34] = test system: Priestia megaterium; experiment: Antibacterial activity against Bacillus megaterium at 600 ug/ml after overnight incubation; conditions: for zone of inhibition at 600 µg/mL: read-out: IZ
[35] = test system: Exserohilum rostratum; experiment: Antifungal activity against Setosphaeria rostrata at 600 ug/ml after 48 hr; conditions: read-out: IZ
[36] = test system: Proteus vulgaris; experiment: Antibacterial activity against Proteus vulgaris at 900 ug/ml after overnight incubation; conditions: read-out: IZ

Compound | zone of inhibition at 900 µg/mL [1] [mm] | zone of inhibition at 900 µg/mL [2] [mm] | zone of inhibition at 900 µg/mL [3] [mm] | zone of inhibition at 900 µg/mL [4] [mm] | zone of inhibition at 300 µg/mL [5] [mm] | zone of inhibition at 600 µg/mL [7] [mm] | zone of inhibition at 900 µg/mL [8] [mm] | zone of inhibition at 900 µg/mL [10] [mm] | zone of inhibition at 600 µg/mL [11] [mm] | zone of inhibition at 1200 µg/mL [12] [mm] | zone of inhibition at 600 µg/mL [13] [mm] | zone of inhibition at 600 µg/mL [14] [mm] | zone of inhibition at 1200 µg/mL [15] [mm] | zone of inhibition at 900 µg/mL [16] [mm] | zone of inhibition at 900 µg/mL [17] [mm] | zone of inhibition at 600 µg/mL [18] [mm] | zone of inhibition at 900 µg/mL [19] [mm] | zone of inhibition at 1200 µg/mL [20] [mm] | zone of inhibition at 300 µg/mL [21] [mm] | zone of inhibition at 600 µg/mL [22] [mm] | other results
O=[N+]([O-])c1ccc(-c2nnc(CN3CCC(n4nc5ccccc5n4)CC3)o2)cc1Cl | 12 | 9.56 | 12.4 | 12.9 | 2.87 | 3.35 | 7.25 | 11 | 4.85 | 33.2 | 3.46 | 4.82 | 23 | 7.25 | 15.2 | 3.89 | 6.25 | 23.1 | 4.57 | 4.52 | zone of inhibition at 600 µg/mL [6]: 4.89 mm; zone of inhibition at 900 µg/mL [9]: 10.2 mm; zone of inhibition at 900 µg/mL [23]: 17.8 mm; zone of inhibition at 300 µg/mL [24]: 4.45 mm; zone of inhibition at 1200 µg/mL [25]: 31.4 mm; zone of inhibition at 300 µg/mL [26]: 2.95 mm; zone of inhibition at 600 µg/mL [27]: 8.8 mm; zone of inhibition at 600 µg/mL [28]: 9.86 mm; zone of inhibition at 600 µg/mL [29]: 6.28 mm; zone of inhibition at 600 µg/mL [30]: 6.25 mm; zone of inhibition at 900 µg/mL [31]: 7.05 mm; zone of inhibition at 900 µg/mL [32]: 12.3 mm; zone of inhibition at 600 µg/mL [33]: 5.89 mm; zone of inhibition at 600 µg/mL [34]: 5.62 mm; zone of inhibition at 600 µg/mL [35]: 5.56 mm; zone of inhibition at 900 µg/mL [36]: 9.56 mm
CC(C)(C)c1cc(-c2nnc(CN3CCC(n4nc5ccccc5n4)CC3)o2)cc(C(C)(C)C)c1 | 11.2 | 6.8 | 7.25 | 15 | 3.97 | 3.95 | 9.95 | 15.9 | 4.95 | 32 | 4.56 | 3.25 | 29.8 | 11.6 | 17.9 | 3.85 | 7.85 | 29.9 | 3.98 | 5.85 | zone of inhibition at 600 µg/mL [6]: 4.3 mm; zone of inhibition at 900 µg/mL [9]: 9.05 mm; zone of inhibition at 900 µg/mL [23]: 15.8 mm; zone of inhibition at 300 µg/mL [24]: 4.5 mm; zone of inhibition at 1200 µg/mL [25]: 33.8 mm; zone of inhibition at 300 µg/mL [26]: 4.54 mm; zone of inhibition at 600 µg/mL [27]: 9.25 mm; zone of inhibition at 600 µg/mL [28]: 8.32 mm; zone of inhibition at 600 µg/mL [29]: 3.5 mm; zone of inhibition at 600 µg/mL [30]: 7.08 mm; zone of inhibition at 900 µg/mL [31]: 8.95 mm; zone of inhibition at 900 µg/mL [32]: 8.21 mm; zone of inhibition at 600 µg/mL [33]: 5.05 mm; zone of inhibition at 600 µg/mL [34]: 3.95 mm; zone of inhibition at 600 µg/mL [35]: 8.25 mm; zone of inhibition at 900 µg/mL [36]: 9.45 mm
COc1cccc(-c2nnc(CN3CCC(n4nc5ccccc5n4)CC3)o2)c1 | 9.56 | 6.26 | 7.56 | 9.86 | 2.52 | 4.47 | 11.2 | 10.2 | 4.36 | 25.9 | 5.56 | 3.35 | 19.2 | 9.26 | 10.1 | 3.25 | 7.25 | 17.2 | 4.56 | 4.25 | inhibition zone (IZ) [6]: inactive; inhibition zone (IZ) [9]: inactive; zone of inhibition at 900 µg/mL [23]: 13.9 mm; zone of inhibition at 300 µg/mL [24]: 3.35 mm; zone of inhibition at 1200 µg/mL [25]: 21.3 mm; zone of inhibition at 300 µg/mL [26]: 3.32 mm; zone of inhibition at 600 µg/mL [27]: 5.86 mm; zone of inhibition at 600 µg/mL [28]: 7.76 mm; zone of inhibition at 600 µg/mL [29]: 3.65 mm; zone of inhibition at 600 µg/mL [30]: 5.01 mm; zone of inhibition at 900 µg/mL [31]: 11.3 mm; inhibition zone (IZ) [32]: inactive; zone of inhibition at 600 µg/mL [33]: 4.25 mm; inhibition zone (IZ) [34]: inactive; zone of inhibition at 600 µg/mL [35]: 5.85 mm; zone of inhibition at 900 µg/mL [36]: 8.45 mm
Brc1cccc(-c2nnc(CN3CCC(n4nc5ccccc5n4)CC3)o2)c1 | 9.25 | 6.45 | 11.6 | 7.86 | 2.5 | 3.85 | 8.12 | 7.96 | 2.25 | 17.8 | 4.25 | 3.25 | 15.1 | 5.8 | 15.8 | 3.25 | 7.62 | 16.8 | 2.95 | 3.21 | zone of inhibition at 600 µg/mL [6]: 4.46 mm; zone of inhibition at 900 µg/mL [9]: 8.25 mm; zone of inhibition at 900 µg/mL [23]: 9.25 mm; zone of inhibition at 300 µg/mL [24]: 3.55 mm; zone of inhibition at 1200 µg/mL [25]: 29.9 mm; zone of inhibition at 300 µg/mL [26]: 3.98 mm; zone of inhibition at 600 µg/mL [27]: 7.86 mm; zone of inhibition at 600 µg/mL [28]: 5.01 mm; zone of inhibition at 600 µg/mL [29]: 5.85 mm; zone of inhibition at 600 µg/mL [30]: 4.03 mm; zone of inhibition at 900 µg/mL [31]: 7.25 mm; zone of inhibition at 900 µg/mL [32]: 7.25 mm; zone of inhibition at 600 µg/mL [33]: 4.25 mm; zone of inhibition at 600 µg/mL [34]: 3.26 mm; zone of inhibition at 600 µg/mL [35]: 4.01 mm; zone of inhibition at 900 µg/mL [36]: 5.03 mm
